Experimental data as given in US20100076091A1, “COMPOSITION AND METHOD FOR SUPPRESSING LIPOOXIDATION OF ERYTHROCYTE” (TOHOKU UNIVERSITY, priority 2007, published 2010).

Experiments:
[1] = test system: peroxidized phospholipids in erythrocytes; assay: Erythrocyte peroxidized phospholipid level (PCOOH, PEOOH) after oral ingestion, by CL-HPLC; assay type: in vivo, human; conditions: within 4 weeks after the start of ingestion, lutein 9.7 mg/day; 6 normal subjects
Method: Packed cells (washed erythrocytes, 1.5 mL) prepared in a manner similar to that in 1-1 of Example 1 were added to a 50-mL screw cap glass centrifugation tube and then 1.5 mL of a 0.1 mM EDTA-2Na aqueous solution was added, followed by gentle agitation. The solution was allowed to stand in ice for 15 minutes and then 15 mL of isopropanol was added, followed by gentle agitation. The solution was allowed to stand for 30 minutes in ice and then 15 mL of chloroform was added. After vortexing, the solution was allowed to stand for 30 minutes in ice and then centrifuged (1000 g, 10 minutes, 4° C.). […] Solvent removal was carried out under nitrogen and then the total lipid level was measured by a gravimetric method. […]
Peroxidized phospholipids (phosphatidyl choline hydroperoxide (PCOOH) and phosphatidylethanolamine hydroperoxide (PEOOH)) in erythrocytes were measured by chemiluminescence-high performance liquid chromatography (CL-HPLC). […] After separation of PCOOH and PEOOH from other lipid components by HPLC, PCOOH and PEOOH are reacted with a luminescence reagent and then hydroperoxide-group-derived chemiluminescence is detected and quantitatively determined. Specifically, the above obtained chloroform/methanol (2:1, v/v) solution (40 μL) of total erythrocyte lipids was subjected to CL-HPLC and then peroxidized phospholipids were quantitatively determined. […]

[2] = human, in vivo
Method: Blood (12 mL) of a subject after the subject had fasted for 12 hours was collected using EDTA. Blood was centrifuged (1000 g, 10 minutes, 4° C.), so that 6 mL of erythrocytes was obtained. To wash erythrocytes, 5-fold volume (30 mL) of physiological phosphate buffer (pH 8.0) was added and then centrifugation was carried out (2300 g, 10 minutes, 4° C.), thereby removing supernatants. This procedure was repeated 3 times, so that 4 mL of packed cells (washed erythrocytes) was obtained. • 1-2. Extraction of Carotenoid from Erythrocytes and Quantitative Determination Thereof
Two (2) mL of water was added to 2 mL of packed cells (washed erythrocytes) for hemolysis of erythrocytes. […] Fifty (50) μL of the solution was subjected to the following UV-HPLC analysis, so that erythrocyte carotenoid was quantitatively determined. […]
To examine whether the ingested xanthophyll would be actually transferred to erythrocytes so as to suppress accumulation of peroxidized phospholipids, lutein that exists at the highest concentration among human erythrocyte xanthophyll members was administered to 6 normal subjects (3 male subjects and 3 female subjects) for 4 weeks. […] Erythrocytes were separated from the thus obtained blood and then the concentration of erythrocyte lutein and the peroxidized phospholipid level were measured. […]

[3] = test system: erythrocytes; assay: Search for ingredients capable of preventing lipoperoxidation of erythrocytes

## CC1=C[C@H](O)CC(C)(C)[C@H]1/C=C/C(C)=C/C=C/C(C)=C/C=C/C=C(C)/C=C/C=C(C)/C=C/C1=C(C)C[C@@H](O)CC1(C)C [lutein]
[1]
  peroxidized phospholipid level in erythrocytes compared with the level before the start of ingestion: significantly decreased

## CC1=C(/C=C/C(C)=C/C=C/C(C)=C/C=C/C=C(C)/C=C/C=C(C)/C=C/C2=C(C)C[C@@H](O)CC2(C)C)C(C)(C)C[C@H](O)C1 [zeaxanthin]
[2]
  concentration of erythrocyte zeaxanthin, average: 52 pmol/g hemoglobin

## Cc1c(C)c2c(c(C)c1O)CC[C@@](C)(CCC[C@H](C)CCC[C@H](C)CCCC(C)C)O2 [α-tocopherol]
[3]
  prevention of lipoperoxidation of erythrocytes: has no such effects
